The text below walks through data of patent US12049460B2, “EGFR inhibitor compounds” (Recurium IP Holdings, LLC, priority 2016, dated 2024).

By IC50 is commonly meant the concentration needed to halve the response being measured.

The subject of one data set is H1975. As to conditions: read-out: H1975 Cell IC50; cited from earlier work.
The conditions of data set [1]: observed with AZD9291 treatment; cited from earlier work.
Another data set has as its system hepatocytes. The data set can be described thus: Metabolite identification in hepatocytes, human. In kind it is in vitro ADME. As to conditions: 10 μM, 240 min, formation of AZ5104 via de-alkylation on the indole ring. The protocol:
Suspended hepatocytes in enough incubation medium to yield ˜1.5×10^6 cells/mL. Pipetted 199 μL of viable hepatocytes or the boiled hepatocytes into each wells of a 96-well non-coated plate. Placed the plate in the incubator on an orbital shaker to allow the hepatocytes to warm for 10 minutes. Pipetted 1 μL of the 2 mM test compound(s) into respective wells of the 96-well non-coated plate to start the reaction with final concentration of 10 μM. Returned the plate to the incubator and placed on an orbital shaker. Incubated at 37° C., 5% CO2 and 90-95% relative humidity with shaking at 500 rpm on the shaker for 240 min. After incubation, transferred media from each well to a tube containing 400 μL cold methanol, washed the well with 200 μL cold methanol and then transferred the media to the corresponding tube. Centrifuged tubes for 10 minutes at 16,000 g. Aliquots of 200 μL of the supernatants were mixed with 200 μL of pure water and used for LC-MS/MS analysis. UHPLC-MS/MS analysis was conducted using a Dionex UltiMate 3000 UHPLC system (Thermo Fisher Scientific, USA) and Thermo Scientific Q Exactive (Thermo Fisher Scientific, USA) fitted with a HESI probe. […]

As for `C=CC(=O)Nc1cc(Nc2nccc(-c3cn(C)c4ccccc34)n2)c(OC)cc1N(C)CCN(C)C` [AZD9291], the IC50 in the data set with H1975 is 15 nM. In data set [1], the “clinical side effect: diarrhea” value is listed as 42% and the “clinical side effect: rash” value was 41%. The “Metabolite AZ5104, Human” value with hepatocytes was “Observed”.
With `C=CC(=O)Nc1cc(Nc2nccc(-c3c[nH]c4ccccc34)n2)c(OC)cc1N(C)CCN(C)C` [AZ5104], in the data set on H1975, the IC50 was 2 nM.
